The source of these data is PubChem BioAssay (NCI).

SMILES strings stand for the structures. Values joined by “and” are separate entries in the source; they are usually repeats but may differ in a detail not shown here. Equal values may be shown once.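 Method: 48-hour compound exposure of cells in 96-well plates, five concentrations, linear interpolation of endpoints. GI50 marks 50% less growth. TGI: concentration producing complete growth inhibition.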 A value given as a limit tells only on which side of the number the result lay.

Some test systems named below: BT-549 breast; HL-60(TB) leukemia; MALME-3M melanoma; HCT-116 colon; RPMI-8226 leukemia; MOLT-4 leukemia; SF-539 CNS; HOP-62 NSCLC; SW-620 colon; HT29 colon.
What all share (assay): inhibition of tumour cell growth, NCI panel, 48 h

With `Cc1cc(S(=O)(=O)NC#N)c(S/C(=N\Nc2ccc([N+](=O)[O-])cc2)c2ccc(Cl)cc2)cc1Cl`, the GI50 with BT-549 breast was 20.3 µM; in the test with HL-60(TB) leukemia, 36.2 µM; in the test with MALME-3M melanoma, 24.4 µM; with HCT-116 colon, 11.2 µM; in the test on RPMI-8226 leukemia, 30.5 µM; with MOLT-4 leukemia, 19.5 µM. Further, the results for the GI50 in the test with SF-539 CNS, with HOP-62 NSCLC and in the test with SW-620 colon were 13.7 µM, 41.6 µM and 21.1 µM, respectively. Besides, the TGI is 73.4 µM with BT-549 breast; more than 100 µM in the test on HL-60(TB) leukemia; 96.3 µM with MALME-3M melanoma; 26 µM in the test on HCT-116 colon; more than 100 µM in the test with RPMI-8226 leukemia; more than 100 µM in the test on MOLT-4 leukemia. The TGI in the test on SF-539 CNS is 28.9 µM; in the test on HOP-62 NSCLC, more than 100 µM; in the test on SW-620 colon, 52.1 µM.
On to `O=C(O)C1CCCCC1C(=O)O.[NH-]C1CCC1.[NH2-].[Pt+2]` (stereo not drawn), for which the GI50 in the test with BT-549 breast was 19.8 µM; with HL-60(TB) leukemia, 5.98 µM; in the test on MALME-3M melanoma it was 18.6 µM; in the test on HCT-116 colon, 16.1 µM; in the test on MOLT-4 leukemia, 5.48 µM; in the test with SF-539 CNS, 17 µM. The GI50 in the test with HOP-62 NSCLC is 77 µM; with HT29 colon, 17.2 µM; with SW-620 colon it was 14.4 µM. The TGI in the test on BT-549 breast is 77.9 µM; in the test with HL-60(TB) leukemia, 52.8 µM; with MALME-3M melanoma, 38.6 µM; in the test with HCT-116 colon, 36.2 µM; in the test on MOLT-4 leukemia it was more than 100 µM; in the test with SF-539 CNS, 33.2 µM. Moreover, the TGI in the test with HOP-62 NSCLC is more than 100 µM; in the test with HT29 colon, 35.3 µM; in the test with SW-620 colon, 44.5 µM.
Turning to `Cc1nc2sccn2c1-c1csc(Nc2cccc(Cl)c2C)n1`, the GI50 with BT-549 breast was 3.44 µM; with HL-60(TB) leukemia, 3.43 µM; with HCT-116 colon it was 4.67 µM; in the test with RPMI-8226 leukemia, 3.83 µM; with MOLT-4 leukemia, 4.22 µM; with SF-539 CNS, 6.61 µM. The GI50 was 10.3 µM in the test with HOP-62 NSCLC, 3.29 µM with HT29 colon and 3.91 µM in the test with SW-620 colon. Moreover, the TGI in the test with BT-549 breast amounted to 20.5 µM; with HL-60(TB) leukemia it was 19.3 µM; with HCT-116 colon, 20.1 µM; in the test with RPMI-8226 leukemia, 33.3 µM; in the test on MOLT-4 leukemia, 26.8 µM; in the test with SF-539 CNS it was 25.3 µM. The TGI was more than 100 µM with HOP-62 NSCLC, 14.7 µM in the test with HT29 colon and 24.3 µM in the test with SW-620 colon.
With `Nc1ccccc1C#C/C=C\C#Cc1ccccc1`, the GI50 with BT-549 breast is 3.29 µM; in the test with HL-60(TB) leukemia it was 13.7 µM; in the test on HCT-116 colon, 14.1 µM; in the test with RPMI-8226 leukemia, 1.26 µM; in the test with MOLT-4 leukemia, 13.3 µM; in the test with SF-539 CNS, 13 µM. Further, the results for the GI50 in the test with HOP-62 NSCLC, with HT29 colon and in the test with SW-620 colon were 15 µM, 21.1 µM and 19.3 µM, respectively. Besides, the TGI in the test on BT-549 breast is 16.3 µM; in the test on HL-60(TB) leukemia, more than 100 µM; with HCT-116 colon it was 28.6 µM; with RPMI-8226 leukemia it was 10.7 µM; in the test on MOLT-4 leukemia, more than 100 µM; with SF-539 CNS it was 28.6 µM. Moreover, the TGI is 33.6 µM in the test on HOP-62 NSCLC, 44.8 µM in the test with HT29 colon and 41.7 µM in the test with SW-620 colon.
Regarding `Cc1c(C(=O)NCCN2CCOCC2)cn2ncnc(Oc3ccc(NC(=O)Nc4ccc(Cl)c(C(F)(F)F)c4)cc3)c12`, the GI50 was 1.66 µM in the test with BT-549 breast; 0.417 µM in the test with HL-60(TB) leukemia; 1.09 µM with MALME-3M melanoma; 0.711 µM in the test on HCT-116 colon; 0.545 µM in the test with RPMI-8226 leukemia; 0.433 µM with MOLT-4 leukemia. Moreover, the GI50 in the test with SF-539 CNS was 0.508 µM; in the test with HOP-62 NSCLC, 1.99 µM; in the test with HT29 colon it was 1.57 µM. The TGI in the test on BT-549 breast was 3.21 µM; in the test with HL-60(TB) leukemia it was 1.7 µM; in the test on MALME-3M melanoma, 2.76 µM; in the test on HCT-116 colon it was 2.1 µM; with RPMI-8226 leukemia, 3.01 µM; in the test with MOLT-4 leukemia it was 2.6 µM. Further, the TGI in the test with SF-539 CNS was 2.14 µM; with HOP-62 NSCLC, 3.92 µM; in the test on HT29 colon it was more than 100 µM.
Turning to `Cc1cc(Cl)ccc1Nc1nc(C(F)(F)F)ccc1C(=O)N/N=C/c1ccc([N+](=O)[O-])cc1`, the GI50 in the test with BT-549 breast is 1.5 µM; in the test on MALME-3M melanoma, 1.68 µM; with HCT-116 colon, 1.85 µM; in the test on RPMI-8226 leukemia, 0.435 µM; in the test on SF-539 CNS, 2.65 µM; in the test with HOP-62 NSCLC, 3.35 µM. In addition, the GI50 is 3.11 µM in the test with HT29 colon and 1.07 µM in the test on SW-620 colon. Further, the TGI in the test on BT-549 breast was 4.96 µM; with MALME-3M melanoma, 7.09 µM; with HCT-116 colon, more than 23.9 µM; with RPMI-8226 leukemia, 1.77 µM; with MOLT-4 leukemia, more than 20 µM; in the test with SF-539 CNS, 14.4 µM. The TGI in the test on HOP-62 NSCLC is more than 35.7 µM; in the test on HT29 colon, more than 37.5 µM.
In the case of `N.N.N.N.O=C([O-])C(Cl)Cl.O=C([O-])C(Cl)Cl.[Co+3].[O-][Cl+3]([O-])([O-])[O-]`, the GI50 in the test on HL-60(TB) leukemia, with MALME-3M melanoma, in the test on HCT-116 colon, with RPMI-8226 leukemia, in the test on MOLT-4 leukemia and in the test with SF-539 CNS was more than 100 µM each time. For the same compound, the GI50 in the test on HOP-62 NSCLC, in the test on HT29 colon and in the test with SW-620 colon was more than 100 µM each time. Also, the TGI in the test with HL-60(TB) leukemia, in the test on MALME-3M melanoma, in the test with HCT-116 colon, with RPMI-8226 leukemia, in the test on MOLT-4 leukemia and with SF-539 CNS was more than 100 µM in each case. The TGI in the test with HOP-62 NSCLC, with HT29 colon and in the test with SW-620 colon was more than 100 µM throughout.
Consider `N#CCCN(CCC#N)c1ccc(C(Sc2ccccc2)C(NC(=O)c2cc([N+](=O)[O-])ccc2Cl)C(=O)Sc2ccccc2)cc1` (stereo not drawn), for which the GI50 was 0.416 µM with HL-60(TB) leukemia; 1.85 µM with HCT-116 colon; 0.565 µM in the test on MOLT-4 leukemia; 3.87 µM with HOP-62 NSCLC; 2.59 µM in the test on HT29 colon; 3.77 µM with SW-620 colon. The TGI was 3.62 µM and 2.29 µM in the test with HL-60(TB) leukemia; 22 µM with MALME-3M melanoma; 5.51 µM and 5.62 µM in the test on HCT-116 colon; 5.66 µM in the test on RPMI-8226 leukemia; 2.56 µM and 2.95 µM with MOLT-4 leukemia; 4.11 µM and 3.79 µM with SF-539 CNS. For the same compound, the TGI is 12 µM in the test on HOP-62 NSCLC, 7.58 µM with HT29 colon and 14.3 µM in the test on SW-620 colon.
Consider `Cc1cccc(-n2c(=S)[nH]c3c(sc(=O)n3-c3ccccc3C)c2=O)c1`, for which the TGI with HL-60(TB) leukemia, in the test with MALME-3M melanoma, in the test on HCT-116 colon, with RPMI-8226 leukemia, in the test with MOLT-4 leukemia and in the test with SF-539 CNS was more than 100 µM in each case. The TGI in the test on HOP-62 NSCLC, in the test with HT29 colon and in the test on SW-620 colon was more than 100 µM throughout.
